Test results: patent publication US12233057B2, “Small molecules for inhibiting chemokine activity and/or cancer cells growth” (AlonBio Ltd., priority 2015, dated 2025)

Key:
[1] = tested on: Legionella; conditions: cited from earlier work
[2] = tested on: other bacteria; conditions: Nomura et al., Biol Pharm Bull 2012; cited from earlier work
[3] = tested on: RPMI8826; assay: Inhibition of cell growth in additional cancer cell lines; type: cell-based; conditions: 1.0 Micromolar; RPMI8826, Myeloma
[4] = tested on: various cancer cells; assay: 7-ADD staining of various cancer cells (cell cycle / apoptosis); type: cell-based; conditions: 1 μM, 24-hour incubation, all tested cells (FIG. 29)
Procedure: While further studying the activity of BKT300-3-c5, various cancer cells were incubated with 1 μM BKT300-3-c5, and without it (control), and then stained for 7-ADD.

[5] = tested on: Toledo; assay: Inhibition of cell growth in additional cancer cell lines; type: cell-based; conditions: Homo sapiens, 1.0 Micromolar, DLBCL
[6] = tested on: MV4-11 cells; assay: Annexin-V and Propidium Iodide staining of MV4-11 cells; type: cell-based, human; conditions: 1 μM, 24 hours (FIG. 30)
Procedure: In further studies, apoptosis induction by BKT300-3-c5 was established by incubating MV4-11 cells with and without BKT300-3-c5 (1 μM) for 24 hours, followed by staining the cells for Annexin-V and Propidium Iodide (PI).

[7] = tested on: OVCAR3; assay: Inhibition of cell growth in additional cancer cell lines; type: cell-based; conditions: Homo sapiens, OVCAR-3; 1.0 Micromolar; OVCAR3, Ovarian
[8] = tested on: MV4-11, U937, REH, THP-1, NB4, PC-3 and B16-F10 cells; assay: Cancer cell viability assay (PI staining), comparison with IPI-145 in all tested cell lines; type: cell-based; conditions: 24 hours
Procedure: (§1) The cancer cells were incubated in cell medium with 1% fetal calf serum (FCS) at a concentration of 2×10^5 cells/well at a final volume of 250 μl in 96-well plate. The tested small molecule was added to the cells at the indicated concentrations. The cells were incubated for 24 hours and the number of dead and viable cells was then evaluated by fluorescence-activated cell sorting (FACS), using propidium iodide (PI) staining. The IC50 of the small molecule-induced cell death was determined using GraphPad Prism software.
The effect of BKT300-3-c5 on the viability of various cancer cells has been tested, as described under the “method” section hereinabove, and compared to the effect of IPI-145.
FIGS. 22A-B, 23A-B, 24A-B and 25A-B present the effect of BKT300-3-c5 and IPI-145 on various leukemic cells: U937, REH, THP-1 and NB4, respectively.
FIG. 26 presents the effect of BKT300-3-c5 and IPI-145 on prostate cancer PC-3 cells.
FIG. 27 presents the effect of BKT300-3-c5 and IPI-145 on melanoma B16-F10 cells.

[9] = target: MCP-1 (Homo sapiens, UniProt P13500); assay: Migration assay: THP-1 cells towards MCP-1 (Transwell); type: cell-based; conditions: 0.1, 0.5, 1 and 10 μM (FIG. 20B)
Sequence of MCP-1 (P13500 24-99): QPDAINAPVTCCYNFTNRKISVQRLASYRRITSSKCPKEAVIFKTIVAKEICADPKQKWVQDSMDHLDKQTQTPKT
Procedure: (§2) 600 μl of RPMI medium was added to the lower chambers of Transwell® transmigration plates, supplemented with 2 μg/ml of MIP3a, 100 ng/ml of SDF-1 or 10 ng/ml of MCP-1. The tested small molecule was added to the lower chambers at the indicated concentration, except in control samples. The MIP3a, SDF-1 or MCP-1 was incubated with the small molecule for 30 minutes at room temperature before the initiation of the migration assay. Following 30 minutes of incubation 2×10^5 immune cells were added to the upper chambers of the transmigration plates in a total volume of 100 μl. Cells which migrated within 3 hours to the bottom chamber of the Transwell® plates were counted using a FACScalibur™ flow cytometer.
To evaluate migration towards MCP-1, JTHP-1 cells were re-suspended in RPMI medium containing 1% fetal calf serum (FCS).

[10] = tested on: MV4-11 human acute myeloid leukemia cells; assay: Cancer cell viability assay, propidium iodide staining (FACS); type: cell-based
Procedure: as §1
In order to assess the effect of BKT300 on cancer cells viability, the in vitro effect on MV4-11 human acute myeloid leukemia cells was evaluated. The MV4-11 cancer cells were incubated in RPMI cell medium with 1% fetal calf serum (FCS) at a concentration of 2×10^5 cells/well at a final volume of 250 μl in 96-well plate. BKT300 was added to the cells at the indicated concentrations. The cells were incubated for 24 hours and the number of dead and viable cells was then evaluated by fluorescence-activated cell sorting (FACS), using propidium iodide (PI) staining. The IC50 of […] cell death was determined using GraphPad Prism software.

[11] = tested on: K562; assay: Inhibition of cell growth in additional cancer cell lines; type: cell-based; conditions: Homo sapiens; 1.0 Micromolar; K562, CML
[12] = tested on: SDF-1; assay: Migration assay: Jurkat cells towards SDF-1 (Transwell); type: cell-based, human; conditions: for Inhibition of SDF-1/CXCR4 mediated migration of Jurkat cells: 1, 5, 10 and 50 μM (FIGS. 19A-B)
Procedure: as §2
To evaluate migration towards SDF-1, Jurkat cells were re-suspended in RPMI medium containing 1% fetal calf serum (FCS).

[13] = tested on: Farage; assay: Inhibition of cell growth in additional cancer cell lines; type: cell-based; conditions: 1.0 Micromolar, DLBCL
[14] = tested on: SKNBE; assay: as above; type: cell-based; conditions: 1.0 Micromolar, Neuroblastoma
[15] = tested on: HL60; assay: as above; type: cell-based; conditions: Homo sapiens, HL-60; 1.0 Micromolar; HL60, AML
[16] = tested on: U937 cells; assay: Cell cycle by 7-AAD assay in U937 cells; type: cell-based; conditions: U937, 24 hours; for Effect on cell cycle: any of the tested concentrations (0.1, 1 and 10 μM)
Procedure: (§3) U937 cells were incubated for 24 hours with RPMI medium 1% FCs in the presence of 0.1, 1, and 10 μM of Compounds A1, A3, B1, D1 and BKT300-3-c5, using DMSO as a solvent.
Cell cycle was measured using the 7-AAD assay.

[17] = tested on: SU-DHL-6; assay: Inhibition of cell growth in additional cancer cell lines; type: cell-based; conditions: Homo sapiens; 1.0 Micromolar; SU-DHL-6, DLBCL
[18] = tested on: H460; assay: as above; type: cell-based; conditions: Homo sapiens, NCI-H460; 1.0 Micromolar; H460, Lung
[19] = tested on: caspase-3; assay: Cleaved caspase-3 by Western blot and Elisa in AML cell lines NB4, U937 and MV4-11; type: cell-based, human; conditions: 1 μM, 24 hours; NB4, U937 and MV4-11 (FIGS. 31A-C)
Procedure: In still further studies, the role of caspase-3 (CASP3) in the BKT300-3-c5-induced apoptosis of AML cell lines NB4, U937 and MV4-11 was tested. Cells were incubated with BKT300-3-c5 (1 μM) for 24 hours, and were then tested for the presence of cleaved using mAb against human cleaved caspase 3 by Western blot and Elisa assay to caspase-3.

[20] = tested on: SU-DHL-4; assay: Inhibition of cell growth in additional cancer cell lines; type: cell-based; conditions: Homo sapiens; 1.0 Micromolar; SU-DHL-4, DLBCL
[21] = tested on: U937 cells; assay: Apoptosis and cell viability by annexin-V/PI assay in U937 cells; type: cell-based; conditions: U937, 24 hours; for Concentration at which an effect on apoptosis was observed / Concentration at which an effect on cell viability was observed: tested 0.1, 1 and 10 μM; for Effect on apoptosis: any of the tested concentrations (0.1, 1 and 10 μM)
Procedure: as §3
Apoptosis and cell viability were measured using the annexin-V/PI assay.

[22] = tested on: glioblastoma; conditions: animal studies; Kioi et al. 2010; cited from earlier work
[23] = tested on: metastasis; conditions: animal studies; Smith et al. 2004; cited from earlier work
[24] = animal studies; Wilson et al. 2011; cited from earlier work

In the case of `CCCCCC(=O)Cc1cc(O)cc(O)c1Oc1cc(O)cc2cc(CCCCC)oc(=O)c12` [8-(2,4-dihydroxy-6-(2-oxoheptyl)-phenoxy)-6-hydroxy-3-pentyl-1H-isochromen-1-one], the “Antibacterial activity against Legionella” value [1] is given as “potent antibacterial activity” and the “Antibacterial activity against other bacteria” value [2] is given as “not against other bacteria”.

For `CCCCCC1C(=O)Nc2c(Oc3ccc(OC)cc3OC)cc(OC)cc2C1=O` (stereo not shown) [BKT300-3-c5, 8-(2,4-dimethoxyphenoxy)-6-methoxy-3-pentylquinoline-2,4(1H,3H)-dione], the inhibition at 1 µM [3] was 90.6%, the “Apoptotic cell death, 7-ADD staining” value [4] was “induce apoptotic cell death” and the “Growth arrest (cell cycle), 7-ADD staining” value [4] was “arrest the growth at the G2M phase”. The inhibition at 1 µM [5] was 4%, the “Apoptosis induction, percentage of viable MV4-11 cells” value [6] was “reduction in the percentage of viable cells via apoptosis” and the inhibition at 1 µM [7] was 93.7%. For the same compound, the “Reducing the survival of cancer cells, compared to IPI-145” value [8] was “superior effect compared to IPI-145”, the “Inhibiting MCP-1 induced migration of THP-1, compared to IPI-145” value [9] was “more effective that IPI-145” and the IC50 ([10]; Homo sapiens, MV4-11, 24 hour-treatment (FIG. 21B), read-out: IC50, viability of MV4-11 AML cells) was 0.85 µM. The inhibition at 1 µM [11] was 71%, the “Inhibiting SDF-1/CXCR4 mediated migration of Jurkat cells, compared to IPI-145” value ([12]; 1, 5, 10 and 20 μM (FIG. 20A)) was “more effective that IPI-145” and the “Inhibition of SDF-1/CXCR4 mediated migration of Jurkat cells” value [12] was “inhibition”. The inhibition at 1 µM [13] was 40%, the inhibition at 1 µM [14] was 73% and the inhibition at 1 µM [15] was 94.9%. The “Concentration at which cell cycle arrest is demonstrated” value ([16]; tested 0.1, 1 and 10 μM) was 0.1 µM, the inhibition at 1 µM [17] was 50% and the inhibition at 1 µM [18] was 78%. The “Cleaved caspase-3 in induced apoptosis” value [19] was “via caspase-3 activation”, the inhibition at 1 µM [20] was 34% and the “Concentration at which an effect on apoptosis was observed” value [21] was 0.1 µM. For the same compound, the “Concentration at which an effect on cell viability was observed” value [21] was 0.1 µM.

With `CCCCCc1cc(OC)ccc1Oc1cc(OC)cc2c1NC(=O)C(CCCCC)C2=O` (stereo not shown) [BKT300-11-a5, 6-methoxy-8-(4-methoxy-2-pentylphenoxy)-3-pentylquinoline-2,4(1H,3H)-dione] the “Effect on the viability of MV4-11 cells” value ([10]; 1.328, 6.64, 13.28 and 26.56 μM (FIGS. 28A-B)) was “affect viability” and the “Inhibition of SDF-1/CXCR4 mediated migration of Jurkat cells” value [12] was “inhibition”.

With `CCCCCc1cc2cc(O)cc(Oc3c(O)cc(O)c(C(=O)O)c3CCCCC)c2c(=O)o1` [BKT400] the “Inhibition of migration of Jurkat cells towards SDF-1” value ([12]; 1 and 10 μg/ml (FIG. 2C)) was “inhibit”.

In the case of `COc1ccc(Oc2cc(OC)cc3c2NC(=O)CC3=O)c(OC)c1` [Compound A1, 8-(2,4-dimethoxyphenoxy)-6-methoxyquinoline-2,4(1H,3H)-dione], the “Effect on cell cycle” value [16] is reported as “no effect” and the Effect on apoptosis [21] is reported as “no effect”.

In the case of `CCC1C(=O)Nc2c(Oc3ccc(OC)cc3OC)cc(OC)cc2C1=O` (stereo not shown) [Compound A3, 8-(2,4-dimethoxyphenoxy)-3-ethyl-6-methoxyquinoline-2,4(1H,3H)-dione], the “Effect on cell cycle” value [16] is reported as “no effect” and the Effect on apoptosis [21] is reported as “no effect”.

For `CCCCCC1C(=O)Nc2c(Oc3ccc(OC)cc3)cc(OC)cc2C1=O` (stereo not shown) [Compound B1, 6-methoxy-8-(4-methoxyphenoxy)-3-pentylquinoline-2,4(1H,3H)-dione], the “Concentration at which cell cycle arrest is demonstrated” value ([16]; tested 0.1, 1 and 10 μM) was 10 µM, the “Concentration at which some effect on cell cycle is already observed” value ([16]; tested 0.1, 1 and 10 μM) was 1 µM and the “Concentration at which an effect on apoptosis was observed” value [21] was 1 µM. For the same compound, the “Concentration at which an effect on cell viability was observed” value [21] was 1 µM.

In the case of `CCCCCC1C(=O)Nc2c(Oc3ccccc3OC)cc(OC)cc2C1=O` (stereo not shown) [Compound D1, 6-methoxy-8-(2-methoxyphenoxy)-3-pentylquinoline-2,4(1H,3H)-dione], the “Concentration at which cell cycle arrest is demonstrated” value ([16]; tested 0.1, 1 and 10 μM) is reported as 1 µM, the “Concentration at which an effect on apoptosis was observed” value [21] is reported as 0.1 µM and the “Concentration at which an effect on cell viability was observed” value [21] is reported as 0.1 µM.

In the case of `C[C@H](Nc1ncnc2nc[nH]c12)c1cc2cccc(Cl)c2c(=O)n1-c1ccccc1` [IPI-145, reference compound], the “Apoptotic cell death, 7-ADD staining” value [4] is reported as “does not affect growth arrest nor apoptosis” and the “Growth arrest (cell cycle), 7-ADD staining” value [4] is reported as “does not affect growth arrest nor apoptosis”.

For `c1cc(CN2CCCNCCNCCCNCC2)ccc1CN1CCCNCCNCCCNCC1` [plerixafor], the “Effect on recurrence of glioblastoma” value [22] is listed as “reduce recurrence of glioblastoma associated with vasculogenesis”, the Effect on metastasis [23] is listed as “reduce metastasis” and the “Effect on opioid-induced hyperalgesia” value [24] is listed as “counteract opioid-induced hyperalgesia”.
